Assay results taken from patent US7709457B2, “Methods and compositions for delivery of pharmaceutical agents” (Genecure Pte Ltd., priority 1999, dated 2010).

Assays:
MB49 cells [1] = assay: In vitro transfection efficiency of pCMVlacZ, X-gal staining; format: cell-based, murine
human tumor xenografts = conditions: used by itself; cited from earlier work
MB49 cells [2] = assay: Proliferation assay ([14C]-thymidine incorporation), toxicity of transfection agents; format: cell-based, murine
Protocol: Proliferation was assayed by measuring [^14C]-thymidine incorporation. 1×10^4 cells were plated per well in a 96 well flat-bottomed tissue culture plate (Nunc, Rosklide, Denmark) and transfected at optimal conditions as described above for the appropriate length of time (2 h and 24 h exposure), washed and incubated with fresh RPMI 1640 at 37° C. After 32 h, supernatants were removed, and cells were rinsed with 1×PBS. Triplicate wells were incubated with […], [^14]-thymidine (specific activity 56.5 mCi/mmol; Du Pont, Wilmington, Del., USA) for 16 h. The samples were harvested as described in Zhang, Y. et al. (1997) Int. J. Cancer 71:851-7. [^14C]-thymidine incorporation was expressed as a percentage of the incorporation in control cells, which consisted of untransfected cells. The non-parametric Mann-Whitney U test was used to calculate statistical significance. Probability values of p<0.05 were considered statistically significant.
A cell proliferation assay was used to gauge the toxicity of the transfection agents. Relative toxicity was measured by comparing proliferation in transfected and untransfected cells, 48 h after plating. Cells were exposed to the transfection agents for 2 h and 24 h.

[3] = tested on: urothelial cells of the bladder; assay: Transfection of murine bladders by intravesical instillation
Protocol: 5-7 week old-female C57BL6 mice were anaesthetized; their bladders were catheterized with 24 G i.v. catheter and flushed with 1×PBS. The DMBC and DNA complex were mixed for 15 min as described above. The final mix was made up to a final volume of 465 μl with 1×PBS for easy instillation and introduced intravesically. Transfection exposure times of 15 min, 30 min, 1 h or 2 h were evaluated. At different time points the bladders were flushed with 1×PBS to remove DNA/DMBC complex. The mice were sacrificed 48 h after treatment. Experiments were done in duplicates.
Cryostat sections of 6 μM in thickness were fixed in 1.25% glutaraldehyde for 10 min at 4° C. followed by incubation with X-gal for 4 h at 37° C. and were counterstained with haematoxylin.

MB49 cells [4] = assay: Nuclear and cytoplasmic accumulation of plasmid DNA by PCR; format: cell-based, murine; conditions: nuclear and cytoplasmic extracts
Protocol: Nuclear and cytoplasmic fractionation of transfected cells was carried out using gentle lysis with TNE buffer (10 mM Tris, pH (pH8), 1 mM EDTA, 100 mM NaCl, 1% Igepecal) and left on ice for 10 min followed by centrifugation at 7K for 5 min at 4° C. in a microfuge. The supernatant so produced was labelled the cytoplasmic extract and was transferred to a fresh tube. The nuclear extract were prepared by treatment with a proteinase K digestion (100 mM, NaCl, 10 Mm Tris, pH8, 0.5% SDS 25 mM EDTA and 0.1 mg/ml proteinase K) of the pelleted material overnight at 50° C. Nuclear DNA was extracted with phenol/chloroform twice followed by ethanol precipitation. PCR analysis was carried out as described above.
To determine the localization of DNA following transfection with DOTAP and DMBC, nuclear and cytoplasmic extracts were prepared from transfected cells. The presence of DNA in these extracts was determined using PCR. […] The GADPH gene was used to confirm the presence of nuclear DNA in nuclear extracts and the lack of contamination of cytoplasmic fractions with nuclear DNA.

## methyl-β-cyclodextrin
MB49 cells [1]; methyl-β-cyclodextrin by itself in combination with DOTAP and DNA, murine bladder epithelial cells
  transfection with cyclodextrin lacking cholesterol: no transfection of murine bladder epithelial cells
Human tumor xenografts
  anti-tumor effect: had an anti-tumor effect

## [Ca+2].[Cl-].[Cl-] [Calcium chloride]
MB49 cells [1]; MB49 cells, pCMVlacZ, 2 h
  ability to transfect MB49 cells: Neither calcium chloride (0-40 μg) nor DEAE-Dextran (0-2 μg) nor naked DNA could transfect MB49 cells
MB49 cells [1]; MB49 cells, pCMVlacZ, 2 h, percentage of cells stained blue with X-gal
  Transfection efficiency: 0%

## 1,2-diacyl-3-trimethylammonium propane [DOTAP]
MB49 cells [2]; 2 h exposure
  14C-thymidine incorporation, transfected vs untransfected cells: no difference
MB49 cells [2]; 24 h exposure
  cell proliferative capacity vs untransfected cells: reduction in cell proliferative capacity but this was not statistically significant
[3]; 2 h transfection exposure, vs untransfected control bladder
  structure of bladder cells facing the lumen by transmission electron microscopy: did not result in any discernible structural difference
[3]; intravesical instillation, mice
  transfection of bladder epithelial cells facing the lumen: did not result in efficient transfection
MB49 cells [4]
  localization of LacZ plasmid DNA: only found to be in the cytoplasm
